Measurements published in the NIST ThermoML archive (doi:10.1021/je060139a).

Tests used:
[1] = refractive index (Na D-line) (dimensionless); xn = mol fraction of the nth substance listed; conditions: 100.5 kPa, Liquid, Standard Abbe refractometry
[2] = xn = mol fraction of the nth substance listed; conditions: Wilhelmy plate method

COC(=O)c1ccccc1 [methyl benzoate] + CCO
Conditions	refractive index, 288.15 K	refractive index, 298.18 K	refractive index, 308.15 K	refractive index, 318.15 K	surface tension liquid-gas, 288.15 K [mN/m]	surface tension liquid-gas, 298.18 K [mN/m]	surface tension liquid-gas, 308.15 K [mN/m]	surface tension liquid-gas, 318.15 K [mN/m]
[1], x1 = 0.05	1.38013	1.37591	1.37154	1.36738	–	–	–	–
[1], x1 = 0.1	1.39497	1.39068	1.38617	1.38191	–	–	–	–
[1], x1 = 0.15	1.40825	1.40383	1.39926	1.39488	–	–	–	–
[1], x1 = 0.2	1.41993	1.41549	1.41088	1.40643	–	–	–	–
[1], x1 = 0.25	1.43052	1.42606	1.42138	1.41686	–	–	–	–
[1], x1 = 0.3	1.44018	1.4357	1.43104	1.42643	–	–	–	–
[1], x1 = 0.35	1.44896	1.44448	1.4398	1.43518	–	–	–	–
[1], x1 = 0.4	1.45703	1.45255	1.44784	1.44318	–	–	–	–
[1], x1 = 0.45	1.4645	1.46	1.45528	1.45059	–	–	–	–
[1], x1 = 0.5	1.47142	1.46691	1.4622	1.45746	–	–	–	–
[1], x1 = 0.55	1.47785	1.47332	1.46859	1.46384	–	–	–	–
[1], x1 = 0.6	1.48384	1.4793	1.47455	1.46979	–	–	–	–
[1], x1 = 0.65	1.48938	1.48487	1.4801	1.47528	–	–	–	–
[1], x1 = 0.7	1.49451	1.49	1.4852	1.48039	–	–	–	–
[1], x1 = 0.75	1.49936	1.49482	1.49002	1.48515	–	–	–	–
[1], x1 = 0.8	1.50381	1.49926	1.49445	1.48961	–	–	–	–
[1], x1 = 0.85	1.50803	1.50347	1.49866	1.49378	–	–	–	–
[1], x1 = 0.9	1.512	1.50743	1.5026	1.49773	–	–	–	–
[1], x1 = 0.95	1.51569	1.51112	1.50631	1.50144	–	–	–	–
[1], x1 = 1	1.51915	1.51467	1.50993	1.50514	–	–	–	–
[2], x1 = 0.05	–	–	–	–	23.8	23	22.1	21.2
[2], x1 = 0.1	–	–	–	–	24.63	23.78	22.87	21.9
[2], x1 = 0.15	–	–	–	–	25.4	24.51	23.57	22.6
[2], x1 = 0.2	–	–	–	–	26.18	25.25	24.28	23.3
[2], x1 = 0.25	–	–	–	–	26.92	25.96	24.94	23.95
[2], x1 = 0.3	–	–	–	–	27.67	26.66	25.59	24.6
[2], x1 = 0.35	–	–	–	–	28.37	27.3	26.2	25.2
[2], x1 = 0.4	–	–	–	–	29.04	27.9	26.8	25.8
[2], x1 = 0.45	–	–	–	–	29.69	28.55	27.4	26.4
[2], x1 = 0.5	–	–	–	–	30.33	29.16	28	27
[2], x1 = 0.55	–	–	–	–	30.97	29.79	28.6	27.6
[2], x1 = 0.6	–	–	–	–	31.62	30.41	29.2	28.2
[2], x1 = 0.65	–	–	–	–	32.29	31.05	29.8	28.8
[2], x1 = 0.7	–	–	–	–	33.01	31.75	30.5	29.46
[2], x1 = 0.75	–	–	–	–	33.78	32.5	31.2	30.16
[2], x1 = 0.8	–	–	–	–	34.6	33.3	32	30.92
[2], x1 = 0.85	–	–	–	–	35.6	34.2	32.8	31.76
[2], x1 = 0.9	–	–	–	–	36.6	35.2	33.8	32.7
[2], x1 = 0.95	–	–	–	–	37.6	36.2	34.8	33.8
[2], x1 = 1	–	–	–	–	38.6	37.2	35.8	34.8

CCOC(=O)c1ccccc1O [ethyl 2-hydroxybenzoate] + CCO
Conditions	refractive index, 288.15 K	refractive index, 298.18 K	refractive index, 308.15 K	refractive index, 318.15 K	surface tension liquid-gas, 288.15 K [mN/m]	surface tension liquid-gas, 298.18 K [mN/m]	surface tension liquid-gas, 308.15 K [mN/m]	surface tension liquid-gas, 318.15 K [mN/m]
[1], x1 = 0.05	1.38326	1.37908	1.37478	1.37068	–	–	–	–
[1], x1 = 0.1	1.40028	1.39599	1.39159	1.38739	–	–	–	–
[1], x1 = 0.15	1.41504	1.41072	1.40628	1.40202	–	–	–	–
[1], x1 = 0.2	1.42788	1.42347	1.41902	1.4147	–	–	–	–
[1], x1 = 0.25	1.43914	1.43468	1.4302	1.4258	–	–	–	–
[1], x1 = 0.3	1.44918	1.44465	1.44012	1.43567	–	–	–	–
[1], x1 = 0.35	1.4582	1.45364	1.44908	1.44456	–	–	–	–
[1], x1 = 0.4	1.46635	1.46177	1.45719	1.45266	–	–	–	–
[1], x1 = 0.45	1.47375	1.46918	1.46462	1.46008	–	–	–	–
[1], x1 = 0.5	1.48051	1.47593	1.47139	1.46685	–	–	–	–
[1], x1 = 0.55	1.4867	1.48212	1.4776	1.47306	–	–	–	–
[1], x1 = 0.6	1.49239	1.48782	1.48328	1.47873	–	–	–	–
[1], x1 = 0.65	1.49763	1.49304	1.48852	1.48397	–	–	–	–
[1], x1 = 0.7	1.50246	1.49784	1.49331	1.48874	–	–	–	–
[1], x1 = 0.75	1.50695	1.50232	1.49779	1.49321	–	–	–	–
[1], x1 = 0.8	1.51112	1.50649	1.50196	1.49738	–	–	–	–
[1], x1 = 0.85	1.51498	1.51035	1.50582	1.50123	–	–	–	–
[1], x1 = 0.9	1.51852	1.51391	1.50938	1.50479	–	–	–	–
[1], x1 = 0.95	1.52184	1.51723	1.51272	1.50814	–	–	–	–
[1], x1 = 1	1.52481	1.52022	1.51573	1.51116	–	–	–	–
[2], x1 = 0.05	–	–	–	–	24	23.17	22.27	21.3
[2], x1 = 0.1	–	–	–	–	24.8	23.9	22.94	21.97
[2], x1 = 0.15	–	–	–	–	25.5	24.55	23.55	22.57
[2], x1 = 0.2	–	–	–	–	26.1	25.14	24.13	23.17
[2], x1 = 0.25	–	–	–	–	26.65	25.65	24.67	23.7
[2], x1 = 0.3	–	–	–	–	27.2	26.15	25.17	24.2
[2], x1 = 0.35	–	–	–	–	27.7	26.65	25.62	24.67
[2], x1 = 0.4	–	–	–	–	28.1	27.1	26.08	25.17
[2], x1 = 0.45	–	–	–	–	28.6	27.55	26.58	25.7
[2], x1 = 0.5	–	–	–	–	29.13	28.1	27.12	26.25
[2], x1 = 0.55	–	–	–	–	29.71	28.66	27.68	26.8
[2], x1 = 0.6	–	–	–	–	30.33	29.25	28.26	27.38
[2], x1 = 0.65	–	–	–	–	31	29.9	28.9	28
[2], x1 = 0.7	–	–	–	–	31.7	30.6	29.56	28.67
[2], x1 = 0.75	–	–	–	–	32.5	31.38	30.3	29.4
[2], x1 = 0.8	–	–	–	–	33.4	32.25	31.13	30.2
[2], x1 = 0.85	–	–	–	–	34.4	33.18	32.03	31.1
[2], x1 = 0.9	–	–	–	–	35.4	34.18	33.03	32.18
[2], x1 = 0.95	–	–	–	–	36.4	35.17	34.07	33.2
[2], x1 = 1	–	–	–	–	37.5	36.3	35.2	34.4
